Assays:
[1] = DVS (dynamic vapor sorption) hygroscopicity testing; type: physicochemical; details: for hygroscopic weight gain under normal storage conditions / hygroscopic weight gain under accelerated experimental conditions / hygroscopic weight gain under extreme conditions: DVS; for hygroscopic weight gain under normal storage conditions: 25° C. and 60% RH; for hygroscopic weight gain under accelerated experimental conditions: 70% RH; for hygroscopic weight gain under extreme conditions: 90% RH; for crystal form re-identification after DVS testing: XRPD after DVS
Experimental: DVS refers to dynamic vapor sorption: Surface Measurement Systems instrinsic was adopted; the humidity started at 50%, the humidity range investigated was 0%-95%, and the humidity was increased in increments of 10%; the criterion was that each gradient mass change dM/dT is less than 0.002%, TMAX 360 min, two cycles.

[2] = Long-term/accelerated stability (sealed, 25° C./60% RH and 40° C./75% RH); details: for chemical stability / physical stability: 25° C./60% RH and 40° C./75% RH
[3] = Influencing factor stability (open flasks, light, high temperature, high humidity, 30 days); details: for chemical stability under high humidity conditions: high humidity conditions only; for physical stability: light exposure (4500 Lux), 40° C. and 60° C., high humidity RH 75% and 92.5%
[4] = 25° C., 60% RH, sealed, 1 month
[5] = 25° C., 60% RH, sealed, 2 months
[6] = 25° C., 60% RH, sealed, 3 months
[7] = 25° C., 60% RH, sealed, 6 months
[8] = 40° C., 75% RH, sealed, 1 month
[9] = 40° C., 75% RH, sealed, 2 months
[10] = 40° C., 75% RH, sealed, 3 months
[11] = 40° C., 75% RH, sealed, 6 months
[12] = Light exposure (4500 Lux), 5 days, open flask
[13] = Light exposure (4500 Lux), 10 days, open flask
[14] = Light exposure (4500 Lux), 30 days, open flask

For `CCO[C@H]1C[C@H]2CC[C@@](c3ccc(C(=O)O)cc3)(C1)N2Cc1c(OC)cc(C)c2[nH]ccc12.Cl` [crystal form III of the hydrochloride, 4-((1S,3S,5R)-3-ethoxy-8-((5-methoxy-7-methyl-1H-indol-4-yl)methyl)-8-azabicyclo[3.2.1]octan-1-yl)benzoic acid-hydrochloride], the “hygroscopic weight gain under normal storage conditions” value [1] was “about 2.57%”, the “hygroscopic weight gain under accelerated experimental conditions” value [1] was “about 2.960%” and the “hygroscopic weight gain under extreme conditions” value [1] was “about 4.5700%”. The “crystal form re-identification after DVS testing” value [1] was “did not change”, the “Purity %” value [2, 4] was 99.6% and the “Purity %” value [2, 5] was 99.6%. For the same compound, the “Purity %” value [2, 6] was 99.6%, the “Purity %” value [2, 7] was 99.6% and the chemical stability ([2]; 6 months) was “good”. For the same compound, the physical stability ([2]; 6 months) was “good”, the “Purity %” value [2, 8] was 99.6% and the “Purity %” value [2, 9] was 99.5%. For the same compound, the “Purity %” value [2, 10] was 99.5%, the “Purity %” value [2, 11] was 99.4% and the “Purity %” value ([2]; Initial) was 99.6%. The Color and state ([3]; 40° C., 5 days, open flask) was “White solid”, the Purity % ([3]; 40° C., 5 days, open flask) was 99.6% and the Salt form ([3]; 40° C., 5 days, open flask) was “No change”. For the same compound, the Color and state ([3]; 40° C., 10 days, open flask) was “White solid”, the Purity % ([3]; 40° C., 10 days, open flask) was 99.4% and the Salt form ([3]; 40° C., 10 days, open flask) was “No change”. The Color and state ([3]; 40° C., 30 days, open flask) was “White solid”, the Purity % ([3]; 40° C., 30 days, open flask) was 99.0% and the Salt form ([3]; 40° C., 30 days, open flask) was “No change”. The Color and state ([3]; 60° C., 5 days, open flask) was “White solid”, the Purity % ([3]; 60° C., 5 days, open flask) was 99.3% and the Salt form ([3]; 60° C., 5 days, open flask) was “No change”. For the same compound, the Color and state ([3]; 60° C., 10 days, open flask) was “White solid”, the Purity % ([3]; 60° C., 10 days, open flask) was 99.1% and the Salt form ([3]; 60° C., 10 days, open flask) was “No change”. The Color and state ([3]; 60° C., 30 days, open flask) was “White solid”, the Purity % ([3]; 60° C., 30 days, open flask) was 98.5% and the Salt form ([3]; 60° C., 30 days, open flask) was “No change”. The Color and state ([3]; 75% RH, 5 days, open flask) was “White solid”, the Purity % ([3]; 75% RH, 5 days, open flask) was 99.6% and the Salt form ([3]; 75% RH, 5 days, open flask) was “No change”. For the same compound, the Color and state ([3]; 75% RH, 10 days, open flask) was “White solid”, the Purity % ([3]; 75% RH, 10 days, open flask) was 99.6% and the Salt form ([3]; 75% RH, 10 days, open flask) was “No change”. For the same compound, the Color and state ([3]; 75% RH, 30 days, open flask) was “White solid”, the Salt form ([3]; 75% RH, 30 days, open flask) was “No change” and the Color and state ([3]; 92.5% RH, 5 days, open flask) was “White solid”. For the same compound, the Salt form ([3]; 92.5% RH, 5 days, open flask) was “No change”, the Color and state ([3]; 92.5% RH, 10 days, open flask) was “White solid” and the Salt form ([3]; 92.5% RH, 10 days, open flask) was “No change”. For the same compound, the Color and state ([3]; 92.5% RH, 30 days, open flask) was “White solid”, the Salt form ([3]; 92.5% RH, 30 days, open flask) was “No change” and the Color and state ([3]; Initial, 0 days) was “White solid”. For the same compound, the Salt form ([3]; Initial, 0 days) was “Crystal form”, the Color and state [3, 12] was “White solid” and the Purity % [3, 12] was 99.2%. The Salt form [3, 12] was “No change”, the Color and state [3, 13] was “White solid” and the Purity % [3, 13] was 98.4%. The Salt form [3, 13] was “No change”, the Color and state [3, 14] was “White solid” and the Purity % [3, 14] was 96.2%. The Salt form [3, 14] was “No change”, the “chemical stability under high humidity conditions” value ([3]; 30 days) was “good” and the physical stability ([3]; 30 days) was “good”.

With `CCO[C@H]1C[C@H]2CC[C@@](c3ccc(C(=O)O)cc3)(C1)N2Cc1c(OC)cc(C)c2[nH]ccc12.Cl` [crystal form II of the hydrochloride, 4-((1S,3S,5R)-3-ethoxy-8-((5-methoxy-7-methyl-1H-indol-4-yl)methyl)-8-azabicyclo[3.2.1]octan-1-yl)benzoic acid-hydrochloride] the “hygroscopic weight gain under normal storage conditions” value [1] was “about 3.93%”, the “hygroscopic weight gain under accelerated experimental conditions” value [1] was “about 4.28%” and the “hygroscopic weight gain under extreme conditions” value [1] was “about 5.00%”. The “crystal form re-identification after DVS testing” value [1] was “did not change”, the “Purity %” value [2, 4] was 100.0% and the “Purity %” value [2, 5] was 100.0%. The “Purity %” value [2, 6] was 100.0%, the Salt form [2, 6] was “No change” and the “Purity %” value [2, 7] was 100.0%. The Salt form [2, 7] was “No change”, the chemical stability ([2]; 6 months) was “good” and the physical stability ([2]; 6 months) was “good”. For the same compound, the “Purity %” value [2, 8] was 100.0%, the “Purity %” value [2, 9] was 100.0% and the “Purity %” value [2, 10] was 99.9%. The “Purity %” value [2, 11] was 99.9%, the “Purity %” value ([2]; Initial) was 100.0% and the Color and state ([3]; 40° C., 5 days, open flask) was “White solid”. For the same compound, the Purity % ([3]; 40° C., 5 days, open flask) was 99.4%, the Salt form ([3]; 40° C., 5 days, open flask) was “No change” and the Color and state ([3]; 40° C., 10 days, open flask) was “White solid”. For the same compound, the Purity % ([3]; 40° C., 10 days, open flask) was 99.3%, the Salt form ([3]; 40° C., 10 days, open flask) was “No change” and the Color and state ([3]; 40° C., 30 days, open flask) was “White solid”. For the same compound, the Purity % ([3]; 40° C., 30 days, open flask) was 98.6%, the Salt form ([3]; 40° C., 30 days, open flask) was “No change” and the Color and state ([3]; 60° C., 5 days, open flask) was “White solid”. For the same compound, the Purity % ([3]; 60° C., 5 days, open flask) was 99.4%, the Salt form ([3]; 60° C., 5 days, open flask) was “No change” and the Color and state ([3]; 60° C., 10 days, open flask) was “White solid”. For the same compound, the Purity % ([3]; 60° C., 10 days, open flask) was 98.8%, the Salt form ([3]; 60° C., 10 days, open flask) was “No change” and the Color and state ([3]; 60° C., 30 days, open flask) was “White solid”. For the same compound, the Purity % ([3]; 60° C., 30 days, open flask) was 97.4%, the Salt form ([3]; 60° C., 30 days, open flask) was “No change” and the Color and state ([3]; 75% RH, 5 days, open flask) was “White solid”. The Purity % ([3]; 75% RH, 5 days, open flask) was 100.0%, the Salt form ([3]; 75% RH, 5 days, open flask) was “No change” and the Color and state ([3]; 75% RH, 10 days, open flask) was “White solid”. The Purity % ([3]; 75% RH, 10 days, open flask) was 100.0%, the Salt form ([3]; 75% RH, 10 days, open flask) was “No change” and the Color and state ([3]; 75% RH, 30 days, open flask) was “White solid”. For the same compound, the Purity % ([3]; 75% RH, 30 days, open flask) was 100.0%, the Salt form ([3]; 75% RH, 30 days, open flask) was “No change” and the Color and state ([3]; 92.5% RH, 5 days, open flask) was “White solid”. For the same compound, the Purity % ([3]; 92.5% RH, 5 days, open flask) was 100.0%, the Salt form ([3]; 92.5% RH, 5 days, open flask) was “No change” and the Color and state ([3]; 92.5% RH, 10 days, open flask) was “White solid”. For the same compound, the Purity % ([3]; 92.5% RH, 10 days, open flask) was 100.0%, the Salt form ([3]; 92.5% RH, 10 days, open flask) was “No change” and the Color and state ([3]; 92.5% RH, 30 days, open flask) was “White solid”. For the same compound, the Purity % ([3]; 92.5% RH, 30 days, open flask) was 100.0%, the Salt form ([3]; 92.5% RH, 30 days, open flask) was “No change” and the Color and state ([3]; Initial, 0 days) was “White solid”. For the same compound, the Purity % ([3]; Initial, 0 days) was 100.0%, the Salt form ([3]; Initial, 0 days) was “Crystal form” and the Color and state [3, 12] was “White solid”. For the same compound, the Purity % [3, 12] was 99.8%, the Salt form [3, 12] was “No change” and the Color and state [3, 13] was “White solid”. For the same compound, the Purity % [3, 13] was 99.2%, the Salt form [3, 13] was “No change” and the Color and state [3, 14] was “White solid”. For the same compound, the Purity % [3, 14] was 96.5%, the Salt form [3, 14] was “No change” and the “chemical stability under high humidity conditions” value ([3]; 30 days) was “good”. For the same compound, the physical stability ([3]; 30 days) was “good”.

Reference: patent publication US20250382287A1, “PHARMACEUTICALLY ACCEPTABLE SALT AND CRYSTAL FORM OF NITROGEN-CONTAINING BRIDGE HETEROCYCLIC DERIVATIVE, AND METHOD FOR PREPARING SAME” (JIANGSU HENGRUI PHARMACEUTICALS CO., LTD., priority 2022, published 2025)
